Data reported in US12360121B2, “Assay for detection of an A2E-Saposin B complex” (Syracuse University, priority 2016, dated 2025).

Molecular target: T1, Saposin B (Homo sapiens, UniProt P07602)
T1 sequence (P07602 195-273 limits assumed): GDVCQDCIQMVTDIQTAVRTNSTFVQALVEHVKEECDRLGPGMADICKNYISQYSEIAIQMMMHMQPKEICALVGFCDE
Assay: fluorescence spectroscopy showing binding of A2E by Saposin B
Settings: fluorescence spectroscopy graphs (FIG. 1A, FIG. 1B)
From the text: FIG. 1A is a first fluorescence spectroscopy graph showing that Saposin B binds A2E;
FIG. 1B is a second fluorescence spectroscopy graphs showing that Saposin B binds A2E;

binding of A2E by Saposin B: binds
Compound: CC(C=CC1=C(C)CCCC1(C)C)=CC=CC(C)=Cc1cc(C=CC=C(C)C=CC2=C(C)CCCC2(C)C)cc[n+]1CCO [A2E, N-retinylidene-N-retinylethanolamine]
